# Results from patent publication US20150285817A1 (priority 2014, published 2015).
# Like-named read-outs stand apart in the source and are kept apart here.
# Tested on: NSCLC patients
# Conditions: VeriStrat poor patients, SCR samples
# Text: Briefly, by way of overview, 188 patients were enrolled in the study. Key entry criteria for the study were Stage III/IV NSCLC, treatment-naïve, adenocarcinoma histology, with the patients selected from an Asian population and being either non-smokers or light former smokers. Stratification of the population was based on Eastern Cooperative Oncology Group Performance Status (ECOG PS), smoking history, and gender.
# In summary, we obtained pre-treatment serum samples from all 188 patients enrolled in the study described above. The samples were blinded and subject to MALDI-TOF mass-spectrometry. The resulting mass spectra were subject to predefined pre-processing steps, described below, and integrated intensity values at pre-defined m/z positions ranges, (i.e., feature values) in the pre-processed spectra were obtained. […]
# The pre-treatment serum samples used in the foregoing analysis were largely derived from patient blood samples originally drawn immediately prior to drug dosing (hereafter called “C1D1” samples) in order to define baselines for drug pharmacokinetics and pharmacodynamics. Subsequently, a set of blood samples was analyzed, these being derived from blood draws taken from 1-12 days (median 4.4 days) prior to drug dosing (hereafter called “SCR” samples) for purposes of establishing patient eligibility for study with respect to blood chemistries.
smiles,measurement,setting,value
COc1cc2ncnc(Nc3ccc(F)c(Cl)c3)c2cc1OCCCN1CCOCC1 [gefitinib],median PFS,EGFR SM+ population,4.1 months
same,median PFS,ITT population,2.7 months
